Measurements from patent US7091202B2, “4-arylspirocycloalkyl-2-aminopyrimidine carboxamide KCNQ potassium channel modulators” (Bristol-Myers Squibb Company, priority 2004, dated 2006).

Tests used:
[1] = target: mKCNQ2 (Mus musculus, UniProt Q9Z351); test: KCNQ patch-clamp: two-electrode voltage clamp on Xenopus laevis oocytes injected with mKCNQ2 cRNA; assay type: cell-based; settings: for Percent TEA blockage: percent inhibition relative to 5 mM TEA blockade at a membrane voltage of −40 mV, mKCNQ2 in oocytes
Sequence of mKCNQ2 (Q9Z351 whole entry): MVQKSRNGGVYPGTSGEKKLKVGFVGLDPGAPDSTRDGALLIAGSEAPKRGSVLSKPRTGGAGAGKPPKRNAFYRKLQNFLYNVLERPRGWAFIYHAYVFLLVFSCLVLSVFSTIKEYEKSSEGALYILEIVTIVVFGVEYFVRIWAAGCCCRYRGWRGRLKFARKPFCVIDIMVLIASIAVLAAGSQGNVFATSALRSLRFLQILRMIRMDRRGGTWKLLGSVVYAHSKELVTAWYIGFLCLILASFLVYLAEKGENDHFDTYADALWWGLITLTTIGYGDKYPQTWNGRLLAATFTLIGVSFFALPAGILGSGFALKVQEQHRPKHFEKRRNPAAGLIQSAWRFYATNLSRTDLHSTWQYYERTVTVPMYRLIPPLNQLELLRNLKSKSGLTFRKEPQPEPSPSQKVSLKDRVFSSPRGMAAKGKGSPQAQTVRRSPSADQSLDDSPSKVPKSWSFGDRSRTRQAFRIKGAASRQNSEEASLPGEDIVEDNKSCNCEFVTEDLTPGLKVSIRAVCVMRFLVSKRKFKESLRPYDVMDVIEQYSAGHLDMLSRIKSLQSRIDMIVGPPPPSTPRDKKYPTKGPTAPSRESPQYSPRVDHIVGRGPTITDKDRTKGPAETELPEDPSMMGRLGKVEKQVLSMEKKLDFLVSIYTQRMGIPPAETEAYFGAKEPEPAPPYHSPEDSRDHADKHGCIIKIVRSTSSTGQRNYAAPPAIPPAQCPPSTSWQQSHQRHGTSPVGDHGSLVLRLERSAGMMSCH
Method: KCNQ Patch-clamp. Frog oocytes were surgically harvested from mature Xenopus laevis that had been anesthetized with 0.15% 3-aminobenzoic acid ethyl ester (tricaine). Only late stage V and VI oocytes were selected for cRNA injection, and the overlying follicle cell layers were enzymatically removed. Each oocyte was injected with approximately 60 ng of the mKCNQ2 cRNA. Following injection, oocytes were maintained at 17° C. in ND96 medium consisting of (in mM): NaCl, 90; KCl, 1.0; CaCl2, 1.0; MgCl2, 1.0; HEPES, 5.0; (pH 7.5) and supplemented with heat-inactivated horse serum (5%) and penicillin/streptomycin (5%).
Two-electrode voltage clamp techniques were used to record membrane currents; recording commenced 3–7 days following cRNA injection (Gribkoff, V. K., et al., Mol. Pharmacol. 1996, 50(1), 206–217). For recording and compound application, oocytes were placed in a recording chamber and incubated in Modified Barth's Solution (MBS) consisting of (in mM): NaCl, 88; NaHCO3, 2.4; KCI, 1.0; HEPES, 10; MgSO4, 0.82; Ca(NO3)2, 0.33; CaCl2, 0.41; (pH 7.5). Voltage-clamp protocols consisted of a series of 4 second duration depolarizing voltage steps from a holding potential of −90 mV to a maximal potential of +40 mV in 10 mV intervals. A family of outward currents was generated under control conditions for comparison with currents elicited in the presence of an experimental compound. Control or drug solutions were continually introduced into the recording chamber using a gravity-flow system with an in-line electronic valve array. A minimum of 5 oocytes was used for each drug concentration; drug concentrations ranged from 0.001 μM to 10 μM. During a single experiment, an oocyte was exposed to as many as three drug concentrations sequentially administered for 5 minutes each. All experiments ended with a 5 minute application of TEA (5 mM), a non-selective, but effective blocker of KCNQ channels. Typically, 5 mM TEA produced a maximal blockade of outward current when measured at the −40 mV membrane voltage (94.6+/−0.5% inhibition, n=112). In this manner, all drug effects could be presented as a percentage of TEA blockade, controlling for the variable levels of channel expression from oocyte to oocyte. Table 1 discloses data for representative examples. Data are expressed as percent inhibition relative to TEA blockade at a membrane voltage of −40 mV: A>50% TEA blockage at 100 nM, B>50% TEA blockage at 1 μM, C<50% TEA blockage at 1.0 μM.

[2] = target: T1, hQ23 (HEK-293 cell line stably transfected with one of the members of the KCNQ family) (Homo sapiens, UniProt O43525+O43526); test: Thallium flux assay for KCNQ channel blockers (FLIPR, BTC dye); assay type: cell-based; settings: hQ23 cells
T1 construct: expressed in transfected cells; host or cells: HEK-293, stably transfected
T1 sequence (O43526 whole entry): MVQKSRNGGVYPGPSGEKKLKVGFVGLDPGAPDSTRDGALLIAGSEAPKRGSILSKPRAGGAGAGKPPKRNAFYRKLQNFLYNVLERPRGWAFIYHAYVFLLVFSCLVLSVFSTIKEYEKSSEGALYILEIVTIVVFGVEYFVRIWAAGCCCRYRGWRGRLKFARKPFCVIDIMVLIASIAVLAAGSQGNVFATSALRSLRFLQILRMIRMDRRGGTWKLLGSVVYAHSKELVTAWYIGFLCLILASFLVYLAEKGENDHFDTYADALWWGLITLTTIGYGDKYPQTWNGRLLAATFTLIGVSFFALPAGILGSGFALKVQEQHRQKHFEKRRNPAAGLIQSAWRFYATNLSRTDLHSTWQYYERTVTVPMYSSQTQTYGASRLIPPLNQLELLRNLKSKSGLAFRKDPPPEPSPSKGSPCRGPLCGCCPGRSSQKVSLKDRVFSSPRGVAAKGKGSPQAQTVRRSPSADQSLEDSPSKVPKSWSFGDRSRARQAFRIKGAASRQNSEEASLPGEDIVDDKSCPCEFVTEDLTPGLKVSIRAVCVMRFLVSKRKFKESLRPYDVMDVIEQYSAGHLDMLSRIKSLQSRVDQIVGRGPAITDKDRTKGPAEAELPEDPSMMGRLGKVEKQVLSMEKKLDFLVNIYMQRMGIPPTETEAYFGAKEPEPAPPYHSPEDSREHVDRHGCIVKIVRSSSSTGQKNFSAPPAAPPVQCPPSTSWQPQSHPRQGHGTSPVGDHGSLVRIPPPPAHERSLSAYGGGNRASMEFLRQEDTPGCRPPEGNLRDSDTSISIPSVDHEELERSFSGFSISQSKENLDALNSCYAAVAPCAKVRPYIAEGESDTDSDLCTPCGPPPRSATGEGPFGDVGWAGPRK
T1 sequence (O43525 whole entry): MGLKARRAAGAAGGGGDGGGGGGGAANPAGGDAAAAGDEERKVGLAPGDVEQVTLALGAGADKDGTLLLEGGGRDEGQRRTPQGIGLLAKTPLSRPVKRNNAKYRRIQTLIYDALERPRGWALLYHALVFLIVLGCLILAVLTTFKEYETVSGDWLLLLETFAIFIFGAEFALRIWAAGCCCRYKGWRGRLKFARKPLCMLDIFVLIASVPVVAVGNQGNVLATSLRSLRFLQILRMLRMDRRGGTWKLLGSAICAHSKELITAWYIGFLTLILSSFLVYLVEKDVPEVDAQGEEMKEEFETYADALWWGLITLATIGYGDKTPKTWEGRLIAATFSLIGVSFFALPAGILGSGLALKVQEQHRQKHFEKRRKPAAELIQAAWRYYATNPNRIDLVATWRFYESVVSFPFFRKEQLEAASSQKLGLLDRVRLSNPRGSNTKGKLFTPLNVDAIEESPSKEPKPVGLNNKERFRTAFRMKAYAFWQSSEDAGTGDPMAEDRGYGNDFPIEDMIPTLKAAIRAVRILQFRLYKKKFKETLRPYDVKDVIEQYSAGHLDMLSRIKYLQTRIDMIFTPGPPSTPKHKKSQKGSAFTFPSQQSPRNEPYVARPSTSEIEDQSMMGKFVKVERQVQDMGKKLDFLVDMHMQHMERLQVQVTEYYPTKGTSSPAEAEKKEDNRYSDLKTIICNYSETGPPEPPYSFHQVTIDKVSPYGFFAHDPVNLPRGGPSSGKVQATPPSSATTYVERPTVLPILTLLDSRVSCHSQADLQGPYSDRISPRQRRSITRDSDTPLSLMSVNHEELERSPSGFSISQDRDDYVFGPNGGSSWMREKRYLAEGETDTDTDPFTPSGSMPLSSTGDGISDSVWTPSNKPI
Method in brief: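 HEK-293 cells stably expressing a KCNQ member, loaded with BTC-AM (2 μM) in chloride-free buffer, pH 7.3; compounds added at 1% DMSO, then Tl2SO4 stimulus on FLIPR (488/540 nm, 60 s). Minimal active concentration set at ≥4 SD above negative control; IC50 from 10-point 1:3 series, single-site logistic fit versus the positive-control blocker.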

Structure (SMILES)	Percent TEA blockage [1]	EC50 ([2]; thallium flux) [µM]	further results
CC1CCN(c2ncc(C(=O)NCc3ccc(Cl)cc3Cl)c(C3(c4ccc(Cl)cc4)CCCC3)n2)CC1 [Example 181, 5-pyrimidinecarboxamide, 4-[1-(4-chlorophenyl)cyclopentyl]-N-[(2,4-dichlorophenyl)methyl]-2-(4-methyl-1-piperidinyl)-]	A (A > 50% TEA blockage at 100 nM)	0.01	–
CC1CCN(c2ncc(C(=O)NCc3ccc(Cl)cc3Cl)c(C3(c4ccc(F)cc4)CCCC3)n2)CC1 [Example 263, 5-pyrimidinecarboxamide, N-[(2,4-dichlorophenyl)methyl]-4-[1-(4-fluorophenyl)cyclopentyl]-2-(4-methyl-1-piperidinyl)-]	A (A > 50% TEA blockage at 100 nM)	–	EC50 ([2]; thallium flux assay): 0.017 µM
CC1CCN(c2ncc(C(=O)NC(C)c3cccnc3)c(C3(c4ccccc4)CCCC3)n2)CC1 (stereo not shown) [Example 16, 2-(4-Methyl-piperidin-1-yl)-4-(1-phenyl-cyclopentyl)-pyrimidine-5-carboxylic acid (1-pyridin-3-yl-ethyl)-amide]	A (A > 50% TEA blockage at 100 nM)	–	–
CC[N+](CC)(CC)CC [TEA, reference compound]	–	–	maximal blockade of outward current (% inhibition) ([1]; 5 mM TEA, measured at −40 mV membrane voltage, n=112): 94.6+/−0.5%
O=C(NCc1ccc(F)cc1F)c1cnc(NC2CCCC2)nc1C1(c2ccccc2)CCCC1 [Example 121, 5-pyrimidinecarboxamide, 2-(cyclopentylamino)-N-[(2,4-difluorophenyl)methyl]-4-(1-phenylcyclopentyl)-]	–	0.024	–
CN1CCN(c2ncc(C(=O)NCc3cccc4ccccc34)c(C3(c4ccc(Cl)cc4)CCCC3)n2)CC1 [Example 168, 5-pyrimidinecarboxamide, 4-[1-(4-chlorophenyl)cyclopentyl]-2-(4-methyl-1-piperazinyl)-N-(1-naphthalenylmethyl)-]	–	0.497	–

The next lines start with results.

Percent TEA blockage [1]	EC50 ([2]; thallium flux) [µM]	Structure (SMILES)	further results
B (B > 50% TEA blockage at 1 μM)	–	O=C(NCc1ccc2c(c1)OCO2)c1cnc(N2CCCC2)nc1C1(c2ccccc2)CCCCC1 [Example 299, N-(1,3-benzodioxol-5-ylmethyl)-4-[1-phenylcyclohexyl]-2-(1-pyrrolidinyl)-5-pyrimidinecarboxamide]	–
B (B > 50% TEA blockage at 1 μM)	0.01	CC1CCN(c2ncc(C(=O)NCc3ccc(C(F)(F)F)cc3)c(C3(c4ccccc4)CCCC3)n2)CC1 [Example 138, 5-pyrimidinecarboxamide, 2-(4-methyl-1-piperidinyl)-4-(1-phenylcyclopentyl)-N-[[4-(trifluoromethyl)phenyl]methyl]-]	–
–	0.119	CC1CCC(Nc2ncc(C(=O)NCc3ccc4c(c3)OCO4)c(C3(c4ccc(Cl)cc4)CCCC3)n2)CC1 (stereo not shown) [Example 151, 5-pyrimidinecarboxamide, N-(1,3-benzodioxol-5-ylmethyl)-4-[1-(4-chlorophenyl)cyclopentyl]-2-[(4-methylcyclohexyl)amino]-]	–
–	0.01	CC1CCN(c2ncc(C(=O)NCc3cccc4ccccc34)c(C3(c4ccccc4)CCCC3)n2)CC1 [Example 104, 5-pyrimidinecarboxamide, 2-(4-methyl-1-piperidinyl)-N-(1-naphthalenylmethyl)-4-(1-phenylcyclopentyl)-]	–
